Test results: patent US9796733B2, “Imidazo-pyrazine derivatives useful as soluble guanylate cyclase activators” (Merck Sharp & Dohme Corp., priority 2014, dated 2017)

Experiments:
[1] = tested on: Spontaneously hypertensive rats (SHR); experiment: Acute efficacy in spontaneously hypertensive rats (SHR): telemetry blood pressure lowering after a single oral dose; format: in vivo, rat
In short: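 Male SHR carrying aortic telemetry implants (14-day recovery) received a single oral gavage of compound or vehicle (10% transcutol/20% Cremophor/70% water). Conscious blood pressure was sampled 30 s every 10 min and averaged hourly; change was taken against the prior-day vehicle baseline, reported as maximum peak SBP decrease at a given PO dose (mpk).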

[2] = target: T1, sGC α1/β1 heterodimer (Homo sapiens, UniProt Q02108+Q02153); experiment: Cell-based sGC functional assay (CASA assay): cGMP generation in CHO-K1/sGC cells, HTRF detection; settings: for Emax: CHO-K1, percent activation relative to standard Compound A in CHO-K1/sGC cells, read-out: % Act.; for EC50: inflection point (IP) of cGMP generation in CHO-K1/sGC cells, 4P fit, activity expressed as percentage of Compound A
T1 construct: expressed in transfected cells; host or cells: CHO-K1 (clone #7, CHO-K1/sGC)
T1 sequence (Q02108 1-690): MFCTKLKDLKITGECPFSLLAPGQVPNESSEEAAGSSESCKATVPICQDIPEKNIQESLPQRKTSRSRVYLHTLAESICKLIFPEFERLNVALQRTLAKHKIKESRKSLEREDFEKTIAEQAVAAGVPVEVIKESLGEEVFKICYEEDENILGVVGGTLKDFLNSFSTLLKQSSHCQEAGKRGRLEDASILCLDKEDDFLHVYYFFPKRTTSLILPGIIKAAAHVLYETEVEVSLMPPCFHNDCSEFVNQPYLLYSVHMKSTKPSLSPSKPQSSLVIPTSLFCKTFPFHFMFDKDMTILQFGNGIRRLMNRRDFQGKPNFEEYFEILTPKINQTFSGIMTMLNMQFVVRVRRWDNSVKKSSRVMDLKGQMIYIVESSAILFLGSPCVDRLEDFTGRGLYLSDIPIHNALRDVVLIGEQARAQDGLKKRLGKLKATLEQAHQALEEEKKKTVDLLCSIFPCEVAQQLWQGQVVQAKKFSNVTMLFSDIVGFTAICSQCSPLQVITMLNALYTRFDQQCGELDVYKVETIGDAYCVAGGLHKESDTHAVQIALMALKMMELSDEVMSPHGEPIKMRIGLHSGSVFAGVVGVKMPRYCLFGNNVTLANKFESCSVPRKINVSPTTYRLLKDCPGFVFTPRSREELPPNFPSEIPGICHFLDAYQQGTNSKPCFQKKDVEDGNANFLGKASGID
T1 sequence (Q02153 1-619): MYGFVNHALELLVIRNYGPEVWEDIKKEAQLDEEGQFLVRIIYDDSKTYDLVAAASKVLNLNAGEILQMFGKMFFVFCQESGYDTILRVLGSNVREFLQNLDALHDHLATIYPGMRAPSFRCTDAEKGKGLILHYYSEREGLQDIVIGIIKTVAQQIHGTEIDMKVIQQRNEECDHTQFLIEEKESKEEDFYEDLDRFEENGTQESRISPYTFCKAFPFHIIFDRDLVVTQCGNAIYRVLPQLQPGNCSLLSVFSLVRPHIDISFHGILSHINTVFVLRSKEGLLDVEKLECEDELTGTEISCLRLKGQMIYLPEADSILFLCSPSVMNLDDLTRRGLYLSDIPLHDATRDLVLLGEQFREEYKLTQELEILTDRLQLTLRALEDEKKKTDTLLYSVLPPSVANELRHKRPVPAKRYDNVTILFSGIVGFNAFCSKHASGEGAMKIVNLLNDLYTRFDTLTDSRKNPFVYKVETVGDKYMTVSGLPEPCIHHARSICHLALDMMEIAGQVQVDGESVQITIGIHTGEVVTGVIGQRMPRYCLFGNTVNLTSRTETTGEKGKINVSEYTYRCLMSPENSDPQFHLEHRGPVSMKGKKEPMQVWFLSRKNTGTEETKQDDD
In short: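 Stable CHO-K1/sGC cells in EBSS buffer with 5 mM MgCl2, 0.05% BSA and 0.5 mM IBMX were incubated with compound (2.5% DMSO final) ±1 μM DETA-NO for 1 hr at 37° C. cGMP was measured by HTRF. Activation is expressed as % of reference HDA Compound A maximum, with IP and max fold induction from a 4P fit.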

Which results are given for CC1(c2ccc(F)c(F)c2)C(=O)Nc2nc(-c3cn4ccnc4cn3)nc(N)c21 (stereo not drawn) [Example 141B, 4-amino-5-(3,4-difluorophenyl)-2-(imidazo[1,2-a]pyrazin-6-yl)-5-methyl-5H-pyrrolo[2,3-d]pyrimidin-6(7H)-one]?
Maximum peak decrease of systolic blood pressure (SBP) in SHR, Cat. ([1]; P.O. 3.0 mpk): B (Category B=SBP in SHRs 20-40 mmHg); Emax [2]: 112%; EC50 [2]: 236 nM

For CCC1(c2ccc(Cl)c(F)c2)C(=O)Nc2nc(-c3cn4ccnc4c(CCC(F)(F)F)n3)nc(N)c21 (stereo not drawn) [Example 199A, 4-amino-5-(4-chloro-3-fluorophenyl)-5-ethyl-2-(8-(3,3,3-trifluoropropyl)imidazo[1,2-a]pyrazin-6-yl)-5H-pyrrolo[2,3-d]pyrimidin-6(7H)-one], which “Maximum peak decrease of systolic blood pressure (SBP) in SHR, Cat.” value (“Maximum peak decrease” for short) ([1]; P.O. 3.0 mpk) is on record?
Its value is “B (Category B=SBP in SHRs 20-40 mmHg)”.

And the Emax [2]?
The Emax was 101%.

And the EC50 [2]?
Its EC50 is 544 nM.

What does the source list for CC1(c2ccc(F)cc2)C(=O)Nc2nc(-c3cn4c(Br)cnc4c(CCC(F)(F)C(F)(F)F)n3)nc(N)c21 (stereo not drawn) [Example 254A, 4-amino-2-(3-bromo-8-(3,3,4,4,4-pentafluorobutyl)imidazo [1,2-a]pyrazin-6-yl)-5-(4-fluorophenyl)-5-methyl-5H-pyrrolo[2,3-d]pyrimidin-6(7H)-one]?
Maximum peak decrease of systolic blood pressure (SBP) in SHR, Cat. ([1]; P.O. 1.0 mpk): C (Category C=SBP in SHRs>40 mmHg); Emax [2]: 126%; EC50 [2]: 57 nM

Which results are given for CCC1(c2ccc(F)cc2)C(=O)Nc2nc(-c3cn4ccnc4c(CCCC(F)(F)F)n3)nc(N)c21 (stereo not drawn) [Example 215A, 4-amino-5-ethyl-5-(4-fluorophenyl)-2-(8-(4,4,4-trifluorobutyl)imidazo[1,2-a]pyrazin-6-yl)-5H-pyrrolo[2,3-d]pyrimidin-6(7H)-one]?
Maximum peak decrease of systolic blood pressure (SBP) in SHR, Cat. ([1]; P.O. 0.3 mpk): B (Category B=SBP in SHRs 20-40 mmHg); Emax [2]: 107%; EC50 [2]: 351 nM

CC1(c2ccc(F)cc2)C(=O)Nc2nc(-c3cn4c(Cl)cnc4c(CCC(F)(F)C(F)(F)F)n3)nc(N)c21 (stereo not drawn) [Example 255A, 4-amino-2-(3-chloro-8-(3,3,4,4,4-pentafluorobutyl)imidazo [1,2-a]pyrazin-6-yl)-5-(4-fluorophenyl)-5-methyl-5H-pyrrolo[2,3-d]pyrimidin-6(7H)-one] was tested. Which “Maximum peak decrease” value ([1]; P.O. 1.0 mpk) did it give?
The value was “C (Category C=SBP in SHRs>40 mmHg)”.

And the Emax [2]?
The Emax was 142%.

And the EC50 [2]?
The EC50 was 32 nM.

What does the source list for CC1(c2ccc(Cl)cc2)C(=O)Nc2nc(-c3cn4ccnc4cn3)nc(NCCC(F)(F)C(F)(F)F)c21 (stereo not drawn) [Example 286A, 5-(4-chlorophenyl)-2-(imidazo[1,2-a]pyrazin-6-yl)-5-methyl-4-((3,3,4,4,4-pentafluorobutyl)amino)-5H-pyrrolo[2,3-d]pyrimidin-6(7H)-one]?
Maximum peak decrease of systolic blood pressure (SBP) in SHR, Cat. ([1]; P.O. 3.0 mpk): A (Category A=SBP in SHRs<20 mmHg); Emax [2]: 83%; EC50 [2]: 124 nM

What does the source list for CC1(C)C(=O)Nc2nc(-c3cn4ccnc4c(Cc4cccc(F)c4)n3)nc(N)c21 [Example 71, 4-amino-2-(8-(3-fluorobenzyl)imidazo[1,2-a]pyrazin-6-yl)-5,5-dimethyl-5H-pyrrolo[2,3-d]pyrimidin-6(7H)-one]?
Maximum peak decrease of systolic blood pressure (SBP) in SHR, Cat. ([1]; P.O. 1.0 mpk): C (Category C=SBP in SHRs>40 mmHg); Emax [2]: 109%; EC50 [2]: 44 nM

Which “Maximum peak decrease” value ([1]; P.O. 1.0 mpk) does the source give for Cc1ccc(C2(C)C(=O)Nc3nc(-c4cn5ccnc5c(CCC(F)(F)C(F)(F)F)n4)nc(N)c32)cn1 (stereo not drawn) [Example 221A, 4-amino-5-methyl-5-(6-methylpyridin-3-yl)-2-(8-(3,3,4,4,4-pentafluorobutyl)imidazo [1,2-a]pyrazin-6-yl)-5H-pyrrolo[2,3-d]pyrimidin-6(7H)-one] here?
The value was “A (Category A=SBP in SHRs<20 mmHg)”.

And the Emax [2]?
Its Emax is 107%.

What about the EC50 [2] of the same molecule?
The EC50 was 496 nM.

Nc1nc(-c2cn3ccnc3c(Cc3cccc(F)c3)n2)nc2c1C(C(=O)NC1CC1)(C1CC1)C(=O)N2 (single isomer, unassigned) [Example 38B, 4-amino-N,5-dicyclopropyl-2-(8-(3-fluorobenzyl)imidazo[1,2-a]pyrazin-6-yl)-6-oxo-6,7-dihydro-5H-pyrrolo[2,3-d]pyrimidine-5-carboxamide] was tested. Which “Maximum peak decrease” value ([1]; P.O. 0.3 mpk) did it give?
Its value is “B (Category B=SBP in SHRs 20-40 mmHg)”.

What about the EC50 [2] of the same molecule?
Its EC50 is 7 nM.

And the “% Act.” value ([2]; percent activation relative to standard Compound A in CHO-K1/sGC cells)?
Its value is 103%.

What does the source list for CC1(c2ccc(F)cc2)C(=O)Nc2nc(-c3cn4ccnc4c(Cc4cccc(F)c4)n3)nc(N)c21 (single isomer, unassigned) [Example 90A, 4-amino-2-(8-(3-fluorobenzyl)imidazo[1,2-a]pyrazin-6-yl)-5-(4-fluorophenyl)-5-methyl-5H-pyrrolo[2,3-d]pyrimidin-6(7H)-one]?
Maximum peak decrease of systolic blood pressure (SBP) in SHR, Cat. ([1]; P.O. 0.3 mpk): C (Category C=SBP in SHRs>40 mmHg); Emax [2]: 122%; EC50 [2]: 32 nM

With CC1(c2ccc(Cl)c(Cl)c2)C(=O)Nc2nc(-c3cn4ccnc4c(CCC(F)(F)F)n3)nc(N)c21 (stereo not drawn) [Example 186A, 4-amino-5-(3,4-dichlorophenyl)-5-methyl-2-(8-(3,3,3-trifluoropropyl)imidazo[1,2-a]pyrazin-6-yl)-5H-pyrrolo[2,3-d]pyrimidin-6(7H)-one] as the molecule, how does the “Maximum peak decrease” value ([1]; P.O. 1.0 mpk) read?
The value was “B (Category B=SBP in SHRs 20-40 mmHg)”.

What about the Emax [2] of the same molecule?
The Emax was 129%.

And the EC50 [2]?
Its EC50 is 207 nM.

What does the source list for CCOc1ccc(C2(C)C(=O)Nc3nc(-c4cn5ccnc5c(CCC(F)(F)C(F)(F)F)n4)nc(N)c32)cn1 (stereo not drawn) [Example 244B, 4-amino-5-(6-ethoxypyridin-3-yl)-5-methyl-2-(8-(3,3,4,4,4-pentafluorobutyl)imidazo [1,2-a]pyrazin-6-yl)-5H-pyrrolo[2,3-d]pyrimidin-6(7H)-one]?
Maximum peak decrease of systolic blood pressure (SBP) in SHR, Cat. ([1]; P.O. 3.0 mpk): C (Category C=SBP in SHRs>40 mmHg); Emax [2]: 109%; EC50 [2]: 81 nM

How did the “Maximum peak decrease” value ([1]; P.O. 1.0 mpk) turn out when Cc1nnc(C2(C)C(=O)Nc3nc(-c4cn5ccnc5c(Cc5ccc(F)cc5)n4)nc(N)c32)s1 (stereo not drawn) [Example 33A, 4-amino-2-(8-(4-fluorobenzyl)imidazo[1,2-a]pyrazin-6-yl)-5-methyl-5-(5-methyl-1,3,4-thiadiazol-2-yl)-5H-pyrrolo[2,3-d]pyrimidin-6(7H)-one] was run?
Its value is “B (Category B=SBP in SHRs 20-40 mmHg)”.

What about the Emax [2] of the same molecule?
The Emax was 135%.

And the EC50 [2]?
The EC50 was 129 nM.

With CC1(c2nnc(C3CC3)s2)C(=O)Nc2nc(-c3cn4ccnc4c(Cc4ccc(F)cc4)n3)nc(N)c21 (stereo not drawn) [Example 32A, 4-amino-5-(5-cyclopropyl-1,3,4-thiadiazol-2-yl)-2-(8-(4-fluorobenzyl)imidazo[1,2-a]pyrazin-6-yl)-5-methyl-5H-pyrrolo[2,3-d]pyrimidin-6(7H)-one] as the molecule, how does the “Maximum peak decrease” value ([1]; P.O. 1.0 mpk) read?
The value was “B (Category B=SBP in SHRs 20-40 mmHg)”.

And the Emax [2]?
Its Emax is 137%.

And the EC50 [2]?
The EC50 was 58 nM.

Which “Maximum peak decrease” value ([1]; P.O. 3.0 mpk) does the source give for CC1(c2ccc(Cl)c(Cl)c2)C(=O)Nc2nc(-c3cn4ccnc4cn3)nc(N)c21 (stereo not drawn) [Example 138A, 4-amino-5-(3,4-dichlorophenyl)-2-(imidazo[1,2-a]pyrazin-6-yl)-5-methyl-5H-pyrrolo[2,3-d]pyrimidin-6(7H)-one] here?
The value was “B (Category B=SBP in SHRs 20-40 mmHg)”.

What about the Emax [2] of the same molecule?
Its Emax is 151%.

What about the EC50 [2] of the same molecule?
Its EC50 is 369 nM.

With CC1(c2ccc(OC(F)(F)F)cc2)C(=O)Nc2nc(-c3cn4ccnc4c(CCC(F)(F)C(F)(F)F)n3)nc(N)c21 (stereo not drawn) [Example 234B, 4-amino-5-methyl-2-(8-(3,3,4,4,4-pentafluorobutyl)imidazo [1,2-a]pyrazin-6-yl)-5-(4-(trifluoromethoxy)phenyl)-5H-pyrrolo[2,3-d]pyrimidin-6(7H)-one] as the molecule, how does the “Maximum peak decrease” value ([1]; P.O. 0.3 mpk) read?
The value was “A (Category A=SBP in SHRs<20 mmHg)”.

What about the Emax [2] of the same molecule?
The Emax was 105%.

And the EC50 [2]?
The EC50 was 27 nM.
